# Experiments:
# COLO-205 cells = test: Cell apoptosis by double staining of Annexin V and propidium iodide, COLO-205; format: cell-based; settings: COLO-205 cell
# Procedure: (§1) The supernatant is removed and the cells are suspended again by 100 μl binding buffer. Annexin V-FITC (BD Pharmgen Company) is added to which final concentration is 2 μg/ml, and the cells are incubated at the room temperature. 10 minutes later, 400 μl binding buffer is supplemented. The cells are transferred into Flow Analyzer Tube, and 1 μg propidium iodide (Sigma Company) is added into each of the tube. The cells are analyzed by Flow Cytometer within 30 minutes. The experiment is repeated three times for each cell line.
# (§2) The activity to induce the tumor cell apoptosis of the tumor-targeted TNF-related apoptosis-inducing ligand's variant NGR-TRAIL is appraised using COLO-205, HCT-15 and HT-29 cells separately (FIG. 4). After induced by series concentration gradient TRAIL variant or TRAIL, the tumor cells are detected by Flow Cytometer according to the double staining method of Annexin V-FITC and Pl. […] The sensibility of Hela cell to TRAIL is increased 8 times because of the addition of the short peptide. […] There is a positive correction between the difference of the apoptosis-inducing to these tumor cells between NGR-L-TRAIL and TRAIL and the expression and the abundance of the CD13 molecule on the surface of tumor cell. […] The NGR domain from NGR-L-TRAIL can direct the protein of TRAIL variant to the surface of target cell to enrichment on the cell surface. […]
# Hela cells = test: Cell apoptosis by double staining of Annexin V and propidium iodide, Hela; format: cell-based, human
# Procedure: as §1, §2
# [1] = test system: mutated Jurkat cells from FADD−/− and Caspase-−/−; test: Apoptosis induction in mutated Jurkat cells; format: cell-based
# HCT-15 tumor = test: Anti-tumor effect in HCT-15 colon cancer model in nude mice; format: in vivo; settings: HCT-15 model; 400 μg/day per mouse combining with CPT-11; 28th day
# Procedure: The female nude mice bought from ShangHai Experiment Animal Center are 5-6 weeks old. The mouse tail intravenous injection of 100 μg of purified Asialo GM-1 antibody (Wako Chemicals Company, Japan) that is specific antibody blocking natural killer cells is carried out first. 24 hours later, 100 thousands of COLO-205, HT-15 and HT-29 colon cancer cells is subcutaneously vaccinated at the top right side of the back of a mouse. When the volume of tumor arrives 70 cubic millimeters, the mice are grouped randomly and treated. […] Hydrosoluble camptothecin CPT-11([…], trade name: Campto, from Pharmacia/Upjohn Company) is administrated by intravenous administration once a week, for twice in all. The recombinant protein and camptothecin are diluted by phosphate buffer. The volume of tumor is detected by vernier caliper and calculated according the formula: length is multiplied by the square of width and then is divided by 2.
# The anti-tumor effect of tumor-targeted TRAIL used together with chemotherapeutic drug CPT-11 is researched in the present invention. Through COLO-205, HC-15 and HT-29 models of athymic nude mice, the anti-tumor effect of NGR-L-TRAIL used together with chemotherapeutic drug CPT-11 is researched, wherein, COLO-205, HC-15 are sensitive to TRAIL, and COLO-205 is most sensitive, and HT-29 is insensitive to TRAIL. […]
substance,measurement,setting,value
TRAIL: recombinant wild human TNF-related apoptosis-inducing ligand,50% effective concentration (inducing apoptosis),COLO-205 cells,3.5 ng/mL
same,50% effective concentration (EC50) (inducing apoptosis),Hela cells,~0.145 µg/mL
same,inducing apoptosis,[1],cannot be detected
same,tumor disappeared mice from the 10 administrated mice,HCT-15 tumor,7

# Source: patent publication US20130150566A1, “TUMOR-TARGETED TNF-RELATED APOPTOSIS-INDUCING LIGAND'S VARIANT AND THE APPLICATION THEREOF” (TARGETPHARMA LABORATORIES (CHANGZHOU) CO., LTD, priority 2011, published 2013)
